Holding throughout (format): cell-based, mouse
For data set [1], the system named is Raw 264.7 (ATCC TIB71) cells. As to the kind of experiment: Evaluation of cell survival rate of macrophages (MTT). The conditions noted are these: Raw 264.7, 10 μM, 24 hours. The protocol: Raw 264.7 (ATCC TIB71) cells, the mouse derived macrophages', were inoculated in a 96-well plate containing DMEM (Dulbecco's modified Eagle medium; Welgene, Korea) supplemented with 10% FBS (Fetal Bovine Serum), 2 mM glutamine, penicillin (100 unit/ml), and streptomycin (100 μg/ml) at the density of 1×10^4 cells/well. The cells were cultured in 5% CO2 at 37° C. for 4 hours to attach the cells onto the plate. Next, the cells were treated with each sample at different concentrations, followed by further culture for 24 hours. To investigate the cell survival rate, 5 mg/ml of MTT (3-(4,5-dimethylthiazol-2-yl)-2,5-diphenyltetrazoliumbromide, Amresco, OH, USA) was distributed thereto (10 μl/well), followed by culture for 4 hours. Then, the supernatant was eliminated. Formazan reduced from MTT by mitochondria was dissolved in 100 μl of DMSO and then OD570 was measured. 0.2% DMSO was used for the negative control.

Data set [2] has as its system interleukin-6 (IL-6) generation. The experiment in a line: Inhibition of interleukin-6 (IL-6) generation in LPS-treated Raw 264.7 cells (ELISA). The settings on record: Raw 264.7, LPS treated, read-out: Grades of IC50 on IL-6 generation. The protocol: Raw 264.7 cells were distributed by the same manner as described in Experimental Example <2-1>, and IL-6 included in the supernatant treated with each sample at different concentrations was measured by enzyme-linked immunosorbent assay (IL-6 ELISA kit, BD Bioscience, San Diego, Calif.).
Particularly, 10-fold diluted supernatant was distributed in a 96-well plate on which IL-6 antibody was attached, followed by adhesion for 2 hours. The supernatant remaining after the adhesion was washed with a washing buffer. The detection antibody and HRP were adhered on the washed plate for 1 hour. The remaining antibody was washed. Color development was induced by using TMB substrate. The reaction was terminated with sulfuric acid solution. Then, OD450 was measured. IL-6 in the supernatant was quantified by using the standard curve made with the standard IL-6 included in the kit. IL-6 suppression rate was calculated by measuring the same concentration that could inhibit IL-6 generation up to 50% in the LPS treated group and the results are shown in Table 8.
For orientation: An ELISA detects its analyte on a solid surface through an enzyme-linked reagent.

Data set [3] concerns Nitrogen Oxide (NO) generation. As to the kind of experiment: Inhibition of nitrogen oxide (NO) generation in LPS-treated Raw 264.7 cells (Griess). The settings on record: Raw 264.7, LPS 500 ng/ml, 24 hours. The method, then: Raw 264.7 (ATCC TIB71) cells were inoculated in a 96-well plate containing the same medium as used in Experimental Example 1 at the density of 1×10^5 cells/well. The cells were cultured in 5% CO2 at 37° C. for 4 hours to attach the cells onto the plate. The cells were treated with each sample at different concentrations, followed by further culture for 1 hour. […] were treated thereto at the final concentration of 500 ng/ml, followed by further culture for 24 hours. 100 μl of the supernatant was taken and transferred in a new plate, which was mixed with Griess reagent (a mixture of 1% sulfanilamide, 0.1% N-[1-naphthyl]-ethylenediamine dihydrochloride, and 5% phosphoric acid), followed by reaction for 10 minutes. Then, OD540 was measured. NO generation was quantified by using the sodium nitrite standard curve prepared from […] dissolved in the same medium at different concentrations. Considering the NO generation of the inflammation induced macrophages as 100%, the NO generation inhibition rate was calculated and presented in Table 7.
In general terms: The Griess reaction detects nitrite, a stable product of nitric oxide.

Where two headings read alike, the source gives them in different places.

Consider `COc1cc(CCCO)cc2cc(-c3cccc(C)c3)oc12` [Example 3, 3-(7-methoxy-2-m-tolylbenzofuran-5-yl)propane-1-ol], for which the “Grades of cell survival rate (%, in 10 μM)” value (“Grades … (%, in 10 μM)” below) in data set [1] was “A (A: 90<A≤100)”. Besides, the IC50 in data set [2] (Mus musculus, RAW264.7) lay in the range of 40 to 50 µM. In data set [3], the “Grades of NO generation inhibition rate (%)” value is “A (A: 35<A≤100)”.
The corresponding values for `COc1cccc(-c2cc3cc(CCCO)cc(OC)c3o2)c1` [Example 5, 3-(7-methoxy-2-(3-methoxyphenyl)benzofuran-5-yl)propane-1-ol] are “A (A: 90<A≤100)”, 40 to 50 µM and “C (C: 15<C≤25)”.
In the same order, the values of `COc1ccc(-c2cc3cc(CCCO)cc(OC)c3o2)cc1` [Example 7, 3-(7-methoxy-2-(4-methoxyphenyl)benzofuran-5-yl)propane-1-ol] are “A (A: 90<A≤100)”, 40 to 50 µM and “D (D: 5<D≤15)”.
For the compound `COc1cc(CCCO)cc2cc(-c3cccc(F)c3)oc12` [Example 8, 3-(2-(3-fluorophenyl)-7-methoxybenzofuran-5-yl)propane-1-ol], the “Grades … (%, in 10 μM)” value in data set [1] is given as “A (A: 90<A≤100)”. The IC50 in data set [2] (Mus musculus, RAW264.7) was 40 to 50 µM. In addition, in data set [3], the “Grades of NO generation inhibition rate (%)” value is given as “C (C: 15<C≤25)”.
In the same order, the values of `COc1cc(CCCO)cc2cc(-c3ccc(N(C)C)cc3)oc12` [Example 9, 3-(2-(4-(dimethylamino)phenyl)-7-methoxybenzofuran-5-yl)propane-1-ol] are “A (A: 90<A≤100)”, 40 to 50 µM and “C (C: 15<C≤25)”.
For `COc1ccc(CCc2cc(CCCO)cc(OC)c2O)cc1OC` [Example 14, 2-(3,4-dimethoxyphenethyl)-4-(3-hydroxypropyl)-6-methoxyphenol], in data set [1], the “Grades … (%, in 10 μM)” value is given as “C (C: 70<C≤80)”. For the same compound, in data set [3], the “Grades of NO generation inhibition rate (%)” value is “C (C: 15<C≤25)”.
As to `COc1cc(CCCO)cc(CCc2ccc(C)cc2)c1O` [Example 16, 4-(3-hydroxypropyl)-2-methoxy-6-(4-methylpenethyl)phenol], the “Grades … (%, in 10 μM)” value in data set [1] is “A (A: 90<A≤100)”. In addition, the IC50 in data set [2] lay in the range of 30 to 40 µM. Further, the “Grades of NO generation inhibition rate (%)” value in data set [3] is “C (C: 15<C≤25)”.
As to `COc1cccc(CCc2cc(CCCO)cc(OC)c2O)c1` [Example 17, 4-(3-hydroxypropyl)-2-methoxy-6-(3-methoxypenethyl)phenol], the “Grades … (%, in 10 μM)” value in data set [1] is “B (B: 80<B≤90)”. For the same compound, the IC50 in data set [2] was 40 to 50 µM. Moreover, the “Grades of NO generation inhibition rate (%)” value in data set [3] is listed as “C (C: 15<C≤25)”.
Consider `COc1ccc(-c2cc3cc(CO)cc(OC)c3o2)cc1OC` [Example 18, [2-(3,4-dimethoxyphenyl)-7-methoxybenzofuran-5-yl]methanol], for which, in data set [1], the “Grades … (%, in 10 μM)” value is reported as “A (A: 90<A≤100)”. Further, the IC50 in data set [2] (Mus musculus, RAW264.7) fell in the range of 40 to 50 µM. Also, in data set [3], the “Grades of NO generation inhibition rate (%)” value is “C (C: 15<C≤25)”.
Consider `COc1ccc(-c2cc3cc(CCO)cc(OC)c3o2)cc1OC` [Example 20, 2-[2-(3,4-dimethoxyphenyl)-7-methoxybenzofuran-5-yl]ethanol], for which the “Grades … (%, in 10 μM)” value in data set [1] is reported as “B (B: 80<B≤90)”. Further, the IC50 in data set [2] (Mus musculus, RAW264.7) fell in the range of 20 to 30 µM. Also, the “Grades of NO generation inhibition rate (%)” value in data set [3] is recorded as “A (A: 35<A≤100)”.
The corresponding values for `COc1ccc(-c2cc3cc(CCCO)cc(OC)c3o2)cc1O` [Example 23, 5-(5-(3-hydroxypropyl)-7-methoxybenzofuran-2-yl)-2-methoxyphenol] are “B (B: 80<B≤90)”, 40 to 50 µM and “C (C: 15<C≤25)”.
In the same order, the values of `COc1ccc(-c2cc3cc(CCCO)cc(O)c3o2)cc1OC` [Example 27, 2-(3,4-dimethoxyphenyl)-5-(3-hydroxypropyl)benzofuran-7-ol] are “B (B: 80<B≤90)”, 20 to 30 µM and “D (D: 5<D≤15)”.

The record behind these values is patent US10053443B2, “2-phenylbenzofuran derivatives, method for preparing the same and use of the same for treating inflammatory disease” (KOREA RESEARCH INSTITUTE OF BIOSCIENCE AND BIOTECHNOLOGY, priority 2014, dated 2018).
